The source of these data is ChEMBL document CHEMBL1128873, “The synthesis and antibacterial activity of 2-carbolinyl-carbapenems: potent anti-MRSA/MRCNS agents” (1995).

Each structure is given as a SMILES string. Values after ≈ are worked out from the molar mass of the structure shown.

Common to all, as to type: functional
The species named for test [1] is Sus scrofa. Nature of the test: DHP-I(porcine) susceptibility was determined.
For test [2], the system named is Enterococcus sp. As to the kind of experiment: In vitro antibacterial against Enterococcus species. by agar disc diffusion assay method.
Test [3] relates to Enterobacter sp. Nature of the test: In vitro antibacterial against Enterobacter species. by agar disc diffusion assay method.
Test [4] relates to Proteus. Nature of the test: In vitro antibacterial against Proteus species. by agar disc diffusion assay method.
A further test concerns Pseudomonas aeruginosa. As to the kind of experiment: In vitro antibacterial against Pseudomonas aeruginosa by agar disc diffusion assay method.
The subject of test [5] is Staphylococcus aureus. As to the kind of experiment: In vitro antibacterial activity against Methicillin-susceptible Staphylococcus aureus (MSSA) by agar disc diffusion assay method.
For test [6], the system named is Serratia. As to the kind of experiment: In vitro antibacterial against Serratia species. by agar disc diffusion assay method.
The test system of test [7] is Staphylococcus aureus. Nature of the test: In vitro antibacterial activity against Methicillin-resistant Staphylococcus aureus (MRSA) by broth microtube dilution method; value ranges from 128 to >128.
Test [8] relates to Staphylococcus sp. As to the kind of experiment: In vitro antibacterial activity against Methicillin-resistant coagulase negative Staphylococci (MRCNS) by broth microtube dilution method; value ranges from 128 to >128.
The test system of test [9] is Escherichia coli. As to the kind of experiment: In vitro antibacterial against Escherichia coli by agar disc diffusion assay method.
The subject of test [10] is Klebsiella sp. As to the kind of experiment: In vitro antibacterial against Klebsiella species. by agar disc diffusion assay method.
Test [11] is filed under the species Sus scrofa. Nature of the test: DHP-I (porcine) susceptibility with respect to imipenem.
For test [12], the system named is Enterococcus sp. Nature of the test: In vitro antibacterial against Enterococcus species. by agar disc diffusion assay method with respect to imipenem.
Test [13] deals with Escherichia coli. As to the kind of experiment: In vitro antibacterial against Escherichia coli by agar disc diffusion assay method with respect to imipenem.
Test [14] relates to Enterobacter sp. As to the kind of experiment: In vitro antibacterial against Enterobacter species. by agar disc diffusion assay method with respect to imipenem.
In test [15] the test system is Klebsiella sp. As to the kind of experiment: In vitro antibacterial against Klebsiella species. by agar disc diffusion assay method with respect to imipenem.
The subject of test [16] is Proteus. As to the kind of experiment: In vitro antibacterial against Proteus species. by agar disc diffusion assay method with respect to imipenem.
Test [17] relates to Staphylococcus aureus. As to the kind of experiment: In vitro antibacterial activity against Methicillin-resistant Staphylococcus aureus (MRSA) by broth microtube dilution method; value ranges from 1-16.
Test [18] relates to Serratia. As to the kind of experiment: In vitro antibacterial against Serratia species. by agar disc diffusion assay method with respect to imipenem.
Test [19] relates to Staphylococcus sp. As to the kind of experiment: In vitro antibacterial activity against Methicillin-resistant coagulase negative Staphylococci (MRCNS) by agar disc diffusion assay method with respect to imipenem.
Test [20] relates to Staphylococcus aureus. As to the kind of experiment: In vitro antibacterial activity against Methicillin-resistant Staphylococcus aureus (MRSA) by agar disc diffusion assay method with respect to imipenem.
The test system of test [21] is Staphylococcus aureus. Nature of the test: In vitro antibacterial activity against Methicillin-susceptible Staphylococcus aureus (MSSA) by agar disc diffusion assay method with respect to imipenem.
Test [22] has as its system Staphylococcus sp. Nature of the test: In vitro antibacterial activity against Methicillin-resistant coagulase negative Staphylococci (MRCNS) by broth microtube dilution method; value ranges from 4-32.
Test [23] concerns Staphylococcus sp. As to the kind of experiment: In vitro antibacterial activity against Methicillin-resistant coagulase negative Staphylococci (MRCNS) by broth microtube dilution method; value ranges from 2-16.
Test [24] relates to Staphylococcus aureus. As to the kind of experiment: In vitro antibacterial activity against Methicillin-resistant Staphylococcus aureus (MRSA) by broth microtube dilution method; value ranges from 0.5-8.
Test [25] has as its system Staphylococcus sp. Nature of the test: In vitro antibacterial activity against Methicillin-resistant coagulase negative Staphylococci (MRCNS) by broth microtube dilution method; value ranges from 1-4.
Test [26] concerns Staphylococcus aureus. As to the kind of experiment: In vitro antibacterial activity against Methicillin-resistant Staphylococcus aureus (MRSA) by broth microtube dilution method.
For test [27], the system named is Staphylococcus sp. As to the kind of experiment: In vitro antibacterial activity against Methicillin-resistant coagulase negative Staphylococci (MRCNS) by broth microtube dilution method; value ranges from 4-8.
The test system of test [28] is Staphylococcus aureus. As to the kind of experiment: In vitro antibacterial activity against Methicillin-resistant Staphylococcus aureus (MRSA) by broth microtube dilution method; value ranges from 0.5-4.
Test [29] concerns Staphylococcus aureus. As to the kind of experiment: In vitro antibacterial activity against Methicillin-resistant Staphylococcus aureus (MRSA) by broth microtube dilution method; value ranges from 1-8.

`C[C@@H](O)[C@H]1C(=O)N2C(C(=O)O)=C(SCCNC=N)C[C@H]12` [IMIPENEM ANHYDROUS] returned a Relative susceptibility in the test listed under Sus scrofa [1] of 1. The minimum inhibitory concentration (MIC) was determined as 2.8 µg/mL (≈ 9.35 µM) against Enterococcus sp. [2]; 0.49 µg/mL (≈ 1.64 µM) with Enterobacter sp. [3]; 0.95 µg/mL (≈ 3.17 µM) against Proteus [4]; 0.31 µg/mL (≈ 1.04 µM) with Pseudomonas aeruginosa; 0.009 µg/mL (≈ 0.0301 µM) against Staphylococcus aureus [5]; 0.76 µg/mL (≈ 2.54 µM) against Serratia [6]. Moreover, the MIC turned out to be 0.68 µg/mL (≈ 2.27 µM) in the test with Escherichia coli [9] and 0.59 µg/mL (≈ 1.97 µM) against Klebsiella sp. [10]. In addition, the MIC90 against Staphylococcus aureus [7] and in the test on Staphylococcus sp. [8] was greater than 128 µg/mL throughout.

Take `C[C@@H](O)[C@H]1C(=O)N2C(C(=O)[O-])=C(c3ccc4c(c3)c3cccnc3n4C)C[C@H]12.[Na+]`: the Relative susceptibility in the test listed under Sus scrofa [11] is 0.06. In addition, the Relative potency turned out to be 2.1 fold in the test with Enterococcus sp. [12]; 0.12 fold in the test on Escherichia coli [13]; 0.034 fold in the test on Enterobacter sp. [14]; 0.059 fold in the test on Klebsiella sp. [15]; 1.4 fold with Proteus [16]; 0.007 fold with Pseudomonas aeruginosa. The Relative potency is reported as 0.1 fold in the test with Serratia [18], 8.6 fold with Staphylococcus sp. [19], 8 fold in the test on Staphylococcus aureus [20] and 0.17 fold in the test on Staphylococcus aureus [21]. Also, the MIC50 against Staphylococcus aureus [17] is 4 µg/mL; in the test on Staphylococcus sp. [22], 8 µg/mL. The figures for the MIC90 in the test on Staphylococcus aureus [17] and against Staphylococcus sp. [22] were 8 µg/mL and 16 µg/mL, respectively.

With `C[C@@H](O)[C@H]1C(=O)N2C(C(=O)[O-])=C(c3cccc4c3c3cccnc3n4C)C[C@H]12.[Na+]`, in the test filed under Sus scrofa [11], the Relative susceptibility was found to be 0. In addition, the Relative potency was 1.4 fold with Enterococcus sp. [12]; 0.25 fold in the test on Escherichia coli [13]; 0.092 fold in the test with Enterobacter sp. [14]; 0.08 fold with Klebsiella sp. [15]; 1.2 fold in the test with Proteus [16]; 0.009 fold in the test on Pseudomonas aeruginosa. For the same compound, the Relative potency worked out at 0.38 fold in the test with Serratia [18], 12 fold with Staphylococcus sp. [19], 13 fold with Staphylococcus aureus [20] and 0.26 fold in the test on Staphylococcus aureus [21]. The MIC50 against Staphylococcus aureus [17] is 4 µg/mL; against Staphylococcus sp. [23], 8 µg/mL. Also, the figures for the MIC90 in the test on Staphylococcus aureus [17] and with Staphylococcus sp. [23] were 8 µg/mL and 16 µg/mL, respectively.

Compound `C[C@@H]([O-])[C@H]1C(=O)N2C(C(=O)[O-])=C(c3ccc4[nH]c5c[n+](C)ccc5c4c3)C[C@H]12.[Na+]` returned a Relative susceptibility in the test listed under Sus scrofa [11] of 0.027. The Relative potency in the test with Enterococcus sp. [12] worked out at 2.8 fold; in the test on Escherichia coli [13], 9.2 fold; in the test with Enterobacter sp. [14], 7.7 fold; in the test on Klebsiella sp. [15] it was 2.8 fold; with Proteus [16], 25 fold; with Pseudomonas aeruginosa, 0.027 fold. Moreover, the Relative potency in the test on Serratia [18] came to 12 fold; in the test on Staphylococcus sp. [19], 166 fold; in the test with Staphylococcus aureus [20], 28 fold; in the test with Staphylococcus aureus [21], 0.42 fold. In addition, the values for the MIC50 against Staphylococcus aureus [24] and in the test with Staphylococcus sp. [25] were 2 µg/mL and 4 µg/mL, respectively. The MIC90 in the test with Staphylococcus aureus [24] and against Staphylococcus sp. [25] was 4 µg/mL each time.

Take `CN[C@H](CC(C)C)C(=O)N[C@H]1C(=O)N[C@@H](CC(N)=O)C(=O)N[C@H]2C(=O)N[C@H]3C(=O)N[C@H](C(=O)N[C@H](C(=O)O)c4cc(O)cc(O)c4-c4cc3ccc4O)[C@H](O)c3ccc(c(Cl)c3)Oc3cc2cc(c3O[C@@H]2O[C@H](CO)[C@@H](O)[C@H](O)[C@H]2O[C@H]2C[C@](C)(N)[C@H](O)[C@H](C)O2)Oc2ccc(cc2Cl)[C@H]1O` [VANCOMYCIN]: the MIC90 came out at 2 µg/mL (≈ 1.38 µM) in the test with Staphylococcus aureus [26] and 4 µg/mL (≈ 2.76 µM) in the test on Staphylococcus sp. [27].

`C[C@@H]([O-])[C@H]1C(=O)N2C(C(=O)[O-])=C(c3ccc4c(c3)c3ccc[n+](C)c3n4C)C[C@H]12.[Na+]` had a Relative susceptibility in the test listed under Sus scrofa [11] of 0.05. For the same compound, the Relative potency with Enterococcus sp. [12] is 3.9 fold; with Escherichia coli [13], 4.8 fold; in the test with Enterobacter sp. [14] it was 2.8 fold; in the test with Klebsiella sp. [15], 3 fold; with Proteus [16] it was 26 fold; in the test with Pseudomonas aeruginosa it was 0.057 fold. Also, the Relative potency in the test with Serratia [18] was determined as 4.5 fold; with Staphylococcus sp. [19] it was 313 fold; in the test with Staphylococcus aureus [20], 30 fold; in the test on Staphylococcus aureus [21], 0.49 fold. Further, the MIC50 in the test on Staphylococcus aureus [28] worked out at 2 µg/mL; against Staphylococcus sp. [25], 4 µg/mL. In addition, the MIC90 in the test with Staphylococcus aureus [28] and in the test on Staphylococcus sp. [25] was 4 µg/mL in each case.

`C[C@@H]([O-])[C@H]1C(=O)N2C(C(=O)[O-])=C(c3ccc4c(c3)c3cc[n+](C)cc3n4C)C[C@H]12.[Na+]` yielded a Relative susceptibility in the test filed under Sus scrofa [11] of 0.01. The Relative potency in the test on Enterococcus sp. [12] amounted to 3.8 fold; with Escherichia coli [13], 3.8 fold; with Enterobacter sp. [14], 2.5 fold; with Klebsiella sp. [15], 2.5 fold; in the test on Proteus [16], 21 fold; in the test with Pseudomonas aeruginosa, 0.035 fold. Further, the Relative potency with Serratia [18] stood at 3.6 fold; in the test on Staphylococcus sp. [19], 287 fold; with Staphylococcus aureus [20], 23 fold; in the test on Staphylococcus aureus [21], 0.38 fold. Moreover, the MIC50 against Staphylococcus aureus [29] turned out to be 2 µg/mL; with Staphylococcus sp. [25], 4 µg/mL. Moreover, the MIC90 in the test with Staphylococcus aureus [29] and in the test on Staphylococcus sp. [25] was 4 µg/mL each time.

`C[C@@H](O)[C@H]1C(=O)N2C(C(=O)[O-])=C(c3ccc4c(c3)c3cnccc3n4C)C[C@H]12.[Na+]` showed a Relative susceptibility in the test listed under Sus scrofa [11] of 0. Besides, the Relative potency with Enterococcus sp. [12] came to 4 fold; in the test on Escherichia coli [13], 1.8 fold; with Enterobacter sp. [14] it was 0.98 fold; in the test with Klebsiella sp. [15] it was 0.94 fold; in the test on Proteus [16] it was 20 fold; in the test with Pseudomonas aeruginosa, 0.018 fold. Moreover, the Relative potency in the test with Serratia [18] is reported as 4.8 fold; in the test on Staphylococcus sp. [19], 40 fold; in the test on Staphylococcus aureus [20] it was 11 fold; with Staphylococcus aureus [21], 0.56 fold. For the same compound, the MIC50 stood at 4 µg/mL against Staphylococcus aureus [24] and 8 µg/mL in the test on Staphylococcus sp. [23]. For the same compound, the MIC90 against Staphylococcus aureus [24] was 8 µg/mL; with Staphylococcus sp. [23] it was 16 µg/mL.
